In patent publication US20140308294A1, “Anti-IL-1R1 Inhibitors For Use in Cancer” (MERCK PATENT GMBH, priority 2011, published 2014):

Key:
[1] = tested on: primary CRC CSC-derived xenograft tumors; assay: CSC-xenograft tumor growth, CRC model in NOD/SCID mice; type: in vivo, mouse; settings: 5 or 10 mg daily s.c., 76 days
Method: (§1) CSC were FACS-enriched from primary tumor-derived NSCLC and CRC cell line cultures on the basis ALDH activity as determined by the Aldefluor assay. 10^4 cells/mouse were transplanted s.c. in NOD/SCID mice together with Matrigel. A Loading dose of 5 μg/mL Kineret (recombinant […], Amgen) was applied to the Matrigel and subsequent daily treatment s.c. with either 5 or 10 mg Kineret was performed beginning on day 1 post transplantation. Tumor volumes were monitored weekly and three mice from each group were sacrificed at day 76 for the CRC model (A.) and at day 91 for the NSCLC model (B.) for further analysis. For the remaining animals Kineret treatment was stopped and tumor progression was continually monitored. When tumors reached >2000 mm^3 mice were sacrificed. At time of sacrifice serum was collected along for cytokine analysis. A. Tumor growth curves in the CRC tumor model study and B. growth curves in the NSLCL model study. Curves represent mean tumor volume in mm3 from 10 mice/group; error bars are SEM The data shown for each model is representative of n=2 similar experiments.
(§2) Human cell cultures derived from primary tumors obtained from a CRC (FIG. 12A) and a NSCLC (FIG. 12B) patient were sorted for the Aldeflour-positive population using fluorescence activated cell sorting (FACS). […]
(§3) Tumor volume was monitored weekly for 76 days in the CRC model and for 91 days in the NSCLC model.

hIL8 = assay: Serum hIL8 ELISA in NOD/SCID mice with CSC-xenograft tumors; type: in vivo, mouse; settings: CRC day 76 and NSCLC day 91, vs vehicle
Method: (§4) This analysis was performed on serum collected from the tumor model studies described in FIG. 18. Serum analysis was performed using high-sensitivity ELISA assay kits obtained from R&D systems. A.C. Serum from 3 mice at day 76 (CRC) (blue) and at day 91 (NSCLC) (red) was analyzed for hIL8 and hVEGF serum levels. Results are shown as bar graphs representing the mean cytokine concentration in pg/mL+/−SD from n=3 mice/group.
(§5) Three mice from each study group were sacrificed at day 76 (CRC) or day 91 (NSCLC). The tumors were excised, dissociated into single cells, and viably cryopreserved. Serum was also collected for cytokine detection. For the remaining mice Kineret treatment was stopped and the mice were further monitored for tumor growth. When tumors reached ethical tumor-burden limits the mice were sacrificed and tumor cells and serum were collected. […] From all sacrificed mice we also collected and cryopreserved bone marrow cells from the femur and tibial bones for possible analyses.

[2] = in vivo, sc; cited from earlier work
[3] = Tolerability in NOD/SCID mice of the xenograft studies; type: in vivo; settings: 5 and 10 mg daily s.c.
Text: Human cell cultures derived from primary tumors obtained from a CRC (FIG. 12A) and a NSCLC (FIG. 12B) patient were sorted for the Aldeflour-positive population using fluorescence activated cell sorting (FACS). Aldefluor is a marker of high aldehyde-dehydrogenase activity, which is associated with both normal stem cell and CSC phenotypes. The sorted aldefluor-positive (AF+) cells were suspended in Matrigel and injected subcutaneously at a very low cell number (2×10^4 cells/mouse) into NOD/SCID immune-deficient mice. The matrigel suspensions contained a Kineret loading dose of 5 μg/mL which corresponds to reported serum levels of Kineret after daily s.c. dosing. Starting 1 day after inoculation of the AF+ cells, mice were treated daily with 5 mg or 10 mg of Kineret (purchased from Biovitrum) or the drug vehicle. The administration route was s.c. as is standard for Kineret in the clinic.
as §3

hVEGF = assay: Serum hVEGF ELISA in NOD/SCID mice with CSC-xenograft tumors; type: in vivo, mouse; settings: CRC day 76 and NSCLC day 91, vs vehicle
Method: as §4, §5

[4] = tested on: primary NSCLC CSC-derived xenograft tumors; assay: CSC-xenograft tumor growth, NSCLC model in NOD/SCID mice; type: in vivo, mouse; settings: 5 or 10 mg daily s.c., 91 days
Method: as §1, §2, §3

Substance: Kineret: human IL1R-antagonist (IL1RA) marketed under the trade name Kineret, Amgen; approved for rheumatoid arthritis
- inhibition of tumor growth [1]: strong inhibition at both the 5 and 10 mg doses
- hIL-8 levels in mouse serum (hIL8): reduced to undetectable levels
- reported serum levels after daily s.c. dosing [2]: 5 µg/mL
- tolerability [3]: well tolerated
- hVEGF levels in mouse serum (hVEGF): did not alter
- inhibition of tumor growth [4]: response was only achieved with the higher dose of 10 mg/kg
